Experimental findings from article PMC13054725 (2026) are described below.

The structures appear in SMILES notation.

Assay [1] relates to Dopa-A (DA-A) (DNA, aptamer) GACGACTCCAGTTTGAAGGTTCGTTCGCAGGTGTGGAGTGAAGTCGTC
The assay can be described thus: ITC. The conditions noted are these: PBS 1x, 2 mM Mg2+; 1x PBS, 2 mM MgCl2, 25 °C; one-site fit.

In assay [2] the test system is Dopa-A′ (DNA, aptamer) CGACGCCAGTTTGAAGGTTCGTTCGCAGGTGTGGAGTGACGTCG
Description: ITC. To be noted: PBS 1x, 2 mM Mg2+; 1x PBS, 2 mM MgCl2, 25 °C; one-site fit.

As usually defined, the Kd is the equilibrium constant for the complex coming apart. In the case of `NCCc1ccc(O)c(O)c1`, the equilibrium dissociation constant (Kd) came out at 2.7 µM in assay [1] and 3.5 µM in assay [2].
